One block for each compound: values may come before it.
Key:
[1] = Toxicokinetic evaluation of 14 days of repeated intragastric administration to SD rats; assay type: in vivo
Procedure: SD rats were used as the test animals. After intragastric administration of the test compounds to the SD rats, the concentrations of the original forms of the compounds in the plasma and the administration solutions were measured by the LC/MS/MS method at different time points.
Twenty-four SD rats, with an equal number of males and females, were evenly divided into 6 groups, each consisting of 4 rats with an equal number of males and females. The rats were provided by Vital River Laboratory Animal Technology Co., Ltd.
A certain amount of compound MYK-461 was weighed out, and 0.5% MC was added to prepare a colorless clear solution.
Compound MYK-461 was administered at doses of 0.5 mg/kg, 1.5 mg/kg, and 3 mg/kg, each with a volume of 10 mL/kg.
0.2-mL blood samples were collected from the orbit at 0.5 h, 1.0 h, 2.0 h, 4.0 h, 8.0 h, and 24.0 h after administration on day 1, and 0.2-mL blood samples were collected from the orbit before administration and at 0.5 h, 1.0 h, 2.0 h, 4.0 h, 8.0 h, and 24.0 h after administration on day 7 and day 14. The blood samples were placed into EDTA-K2 anticoagulation tubes and centrifuged at 10,000 rpm for 1 min (4° C.), and the plasma was isolated within 1 h and stored at −20° C. before analysis. The procedure starting from the blood collection to the centrifugation was performed under ice-bath conditions. Two hours after administration, food was provided. […]

myosin ATPase = target: T1, myosin ATPase (Bos taurus, UniProt Q9BE39); details: biological evaluation in Application No. WO2022105852; cited from earlier work
T1 construct: 0.07 μM myosin motor protein SI fragment; purchased Cytoskeleton CS-MYS03 (myosin S1); AD99 (actin)

[2] = Long-term/accelerated stability study (6 months); assay type: physicochemical; details: for physical and chemical stability (conclusion): 25° C. with 60% RH and 40° C. with 75% RH
[3] = DVS (dynamic vapor sorption) hygroscopicity; assay type: physicochemical; details: for hygroscopic weight gain: DVS
Procedure: DVS refers to dynamic vapor sorption: The measurement was performed using SMS DVS Advantage; at 25° C., the humidity was changed as follows: 50%-95%-0%-95%-50%, in steps of 10% (5% for the last step) (specific humidity ranges are shown in corresponding patterns, and those listed here were used in most cases); the criterion was dm/dt being not greater than 0.002%.

[4] = Influencing factor stability study (30 days, open flasks); assay type: physicochemical; details: for physical and chemical stability (conclusion): light exposure, 40° C. and 60° C., 75% RH and 92.5% RH
[5] = normal storage conditions, 60% RH
[6] = Light exposure (4500 Lux), 5 days
[7] = Light exposure (4500 Lux), 10 days
[8] = Light exposure (4500 Lux), 30 days

T1 sequence (Q9BE39 85-778 limits assumed): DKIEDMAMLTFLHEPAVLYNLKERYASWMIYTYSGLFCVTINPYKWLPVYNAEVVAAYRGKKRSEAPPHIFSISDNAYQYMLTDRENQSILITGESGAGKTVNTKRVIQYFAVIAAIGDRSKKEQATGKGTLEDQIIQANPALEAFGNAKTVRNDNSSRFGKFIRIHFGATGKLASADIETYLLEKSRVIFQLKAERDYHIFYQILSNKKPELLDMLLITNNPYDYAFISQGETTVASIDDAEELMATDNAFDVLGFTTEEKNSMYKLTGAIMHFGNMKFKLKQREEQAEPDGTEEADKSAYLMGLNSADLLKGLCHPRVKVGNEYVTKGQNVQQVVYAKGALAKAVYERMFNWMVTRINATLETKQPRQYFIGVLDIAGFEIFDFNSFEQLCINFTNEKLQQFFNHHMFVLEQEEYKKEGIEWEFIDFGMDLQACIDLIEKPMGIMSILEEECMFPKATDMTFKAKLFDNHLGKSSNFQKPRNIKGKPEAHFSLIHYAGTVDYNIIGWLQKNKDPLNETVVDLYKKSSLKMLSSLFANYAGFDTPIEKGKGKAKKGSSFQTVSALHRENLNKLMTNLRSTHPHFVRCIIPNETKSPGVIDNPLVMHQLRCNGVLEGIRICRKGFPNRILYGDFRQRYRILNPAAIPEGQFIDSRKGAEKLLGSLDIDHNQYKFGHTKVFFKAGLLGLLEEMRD
T1 sequence (P85100 whole entry partner, the tested form may be a part): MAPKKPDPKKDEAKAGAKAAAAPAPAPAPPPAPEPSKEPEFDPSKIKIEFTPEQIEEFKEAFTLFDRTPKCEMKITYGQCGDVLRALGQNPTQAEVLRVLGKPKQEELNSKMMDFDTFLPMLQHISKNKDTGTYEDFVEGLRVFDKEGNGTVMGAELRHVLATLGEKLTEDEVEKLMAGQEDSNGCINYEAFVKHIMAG

SMILES: Cc1ccc(F)c([C@H](C)Nc2nc(=O)n(C3CCOCC3)c(=O)[nH]2)c1 [(S)-6-((1-(2-Fluoro-5-methylphenyl)ethyl)amino)-3-(tetrahydro-2H-pyran-4-yl)-1,3,5-triazine-2,4(1H,3H)-dione]
accumulation in the SD rats [1]: did not cause significant accumulation
inhibitory effect on myosin ATPase (myosin ATPase): very good inhibitory effect

Crystal form ([2]; 25° C./60% RH, 1 month): No change
Purity % ([2]; 25° C./60% RH, 1 month): 99.7%
Crystal form ([2]; 25° C./60% RH, 2 months): No change
Purity % ([2]; 25° C./60% RH, 2 months): 99.7%
Crystal form ([2]; 25° C./60% RH, 3 months): No change
Purity % ([2]; 25° C./60% RH, 3 months): 99.7%
Crystal form ([2]; 25° C./60% RH, 6 months): No change
Purity % ([2]; 25° C./60% RH, 6 months): 99.7%
Crystal form ([2]; 40° C./75% RH, 1 month): No change
Purity % ([2]; 40° C./75% RH, 1 month): 99.7%
Crystal form ([2]; 40° C./75% RH, 2 months): No change
Purity % ([2]; 40° C./75% RH, 2 months): 99.7%
Crystal form ([2]; 40° C./75% RH, 3 months): No change
Purity % ([2]; 40° C./75% RH, 3 months): 99.7%
Crystal form ([2]; 40° C./75% RH, 6 months): No change
Purity % ([2]; 40° C./75% RH, 6 months): 99.8%
Purity % ([2]; Initial): 99.7%
hygroscopic weight gain ([3]; accelerated conditions, 70% RH): about 0.15%
hygroscopic weight gain ([3]; extreme conditions, 90% RH): about 0.24%
hygroscopic weight gain [3, 5]: about 0.12%
crystal form after DVS testing [3]: did not change
Color and state ([4]; 40° C., 5 days): Off-white solid
Crystal form ([4]; 40° C., 5 days): No change
Purity % ([4]; 40° C., 5 days): 99.7%
Color and state ([4]; 40° C., 10 days): Off-white solid
Crystal form ([4]; 40° C., 10 days): No change
Purity % ([4]; 40° C., 10 days): 99.7%
Color and state ([4]; 40° C., 30 days): Off-white solid
Crystal form ([4]; 40° C., 30 days): No change
Purity % ([4]; 40° C., 30 days): 99.7%
Color and state ([4]; 60° C., 5 days): Off-white solid
Crystal form ([4]; 60° C., 5 days): No change
Purity % ([4]; 60° C., 5 days): 99.7%
Color and state ([4]; 60° C., 10 days): Off-white solid
Crystal form ([4]; 60° C., 10 days): No change
Purity % ([4]; 60° C., 10 days): 99.7%
Color and state ([4]; 60° C., 30 days): Off-white solid
Crystal form ([4]; 60° C., 30 days): No change
Purity % ([4]; 60° C., 30 days): 99.7%
Color and state ([4]; 75% RH, 5 days): Off-white solid
Crystal form ([4]; 75% RH, 5 days): No change
Purity % ([4]; 75% RH, 5 days): 99.7%
Color and state ([4]; 75% RH, 10 days): Off-white solid
Crystal form ([4]; 75% RH, 10 days): No change
Purity % ([4]; 75% RH, 10 days): 99.7%
Color and state ([4]; 75% RH, 30 days): Off-white solid
Crystal form ([4]; 75% RH, 30 days): No change
Purity % ([4]; 75% RH, 30 days): 99.7%
Color and state ([4]; 92.5% RH, 5 days): Off-white solid
Crystal form ([4]; 92.5% RH, 5 days): No change
Purity % ([4]; 92.5% RH, 5 days): 99.7%
Color and state ([4]; 92.5% RH, 10 days): Off-white solid
Crystal form ([4]; 92.5% RH, 10 days): No change
Purity % ([4]; 92.5% RH, 10 days): 99.7%
Color and state ([4]; 92.5% RH, 30 days): Off-white solid
Crystal form ([4]; 92.5% RH, 30 days): No change
Purity % ([4]; 92.5% RH, 30 days): 99.7%
Color and state ([4]; Initial, 0 days): Off-white solid
Purity % ([4]; Initial, 0 days): 99.7%
Color and state [4, 6]: Off-white solid
Crystal form [4, 6]: No change
Purity % [4, 6]: 99.7%
Color and state [4, 7]: Off-white solid
Crystal form [4, 7]: No change
Purity % [4, 7]: 99.7%
Color and state [4, 8]: Off-white solid
Crystal form [4, 8]: No change
Purity % [4, 8]: 99.7%
SMILES: Cc1ccc(F)c([C@H](C)Nc2nc(=O)n(C3CCOCC3)c(=O)[nH]2)c1 [crystal form A, (S)-6-((1-(2-fluoro-5-methylphenyl)ethyl)amino)-3-(tetrahydro-2H-pyran-4-yl)-1,3,5-triazine-2,4(1H,3H)-dione]
physical and chemical stability (conclusion) ([2]; 6 months): both good physical stability and good chemical stability
physical and chemical stability (conclusion) ([4]; 30 days): both good physical stability and good chemical stability

Crystal form ([2]; 25° C./60% RH, 1 month): No change
Purity % ([2]; 25° C./60% RH, 1 month): 99.8%
Crystal form ([2]; 25° C./60% RH, 2 months): No change
Purity % ([2]; 25° C./60% RH, 2 months): 99.8%
Crystal form ([2]; 25° C./60% RH, 3 months): No change
Purity % ([2]; 25° C./60% RH, 3 months): 99.9%
Crystal form ([2]; 25° C./60% RH, 6 months): No change
Purity % ([2]; 25° C./60% RH, 6 months): 99.9%
Crystal form ([2]; 40° C./75% RH, 1 month): No change
Purity % ([2]; 40° C./75% RH, 1 month): 99.9%
Crystal form ([2]; 40° C./75% RH, 2 months): No change
Purity % ([2]; 40° C./75% RH, 2 months): 99.9%
Crystal form ([2]; 40° C./75% RH, 3 months): No change
Purity % ([2]; 40° C./75% RH, 3 months): 99.9%
Crystal form ([2]; 40° C./75% RH, 6 months): No change
Purity % ([2]; 40° C./75% RH, 6 months): 99.9%
Purity % ([2]; Initial): 99.9%
hygroscopic weight gain ([3]; accelerated conditions, 70% RH): about 0.298%
hygroscopic weight gain ([3]; extreme conditions, 90% RH): about 0.418%
hygroscopic weight gain [3, 5]: about 0.242%
crystal form after DVS testing [3]: did not change
Color and state ([4]; 40° C., 5 days): Off-white solid
Crystal form ([4]; 40° C., 5 days): No change
Purity % ([4]; 40° C., 5 days): 99.8%
Color and state ([4]; 40° C., 10 days): Off-white solid
Crystal form ([4]; 40° C., 10 days): No change
Purity % ([4]; 40° C., 10 days): 99.9%
Color and state ([4]; 40° C., 30 days): Off-white solid
Crystal form ([4]; 40° C., 30 days): No change
Purity % ([4]; 40° C., 30 days): 99.9%
Color and state ([4]; 60° C., 5 days): Off-white solid
Crystal form ([4]; 60° C., 5 days): No change
Purity % ([4]; 60° C., 5 days): 99.9%
Color and state ([4]; 60° C., 10 days): Off-white solid
Crystal form ([4]; 60° C., 10 days): No change
Purity % ([4]; 60° C., 10 days): 99.9%
Color and state ([4]; 60° C., 30 days): Off-white solid
Crystal form ([4]; 60° C., 30 days): No change
Purity % ([4]; 60° C., 30 days): 99.9%
Color and state ([4]; 75% RH, 5 days): Off-white solid
Crystal form ([4]; 75% RH, 5 days): No change
Purity % ([4]; 75% RH, 5 days): 99.8%
Color and state ([4]; 75% RH, 10 days): Off-white solid
Crystal form ([4]; 75% RH, 10 days): No change
Purity % ([4]; 75% RH, 10 days): 99.8%
Color and state ([4]; 75% RH, 30 days): Off-white solid
Crystal form ([4]; 75% RH, 30 days): No change
Purity % ([4]; 75% RH, 30 days): 99.8%
Color and state ([4]; 92.5% RH, 5 days): Off-white solid
Crystal form ([4]; 92.5% RH, 5 days): No change
Purity % ([4]; 92.5% RH, 5 days): 99.9%
Color and state ([4]; 92.5% RH, 10 days): Off-white solid
Crystal form ([4]; 92.5% RH, 10 days): No change
Purity % ([4]; 92.5% RH, 10 days): 99.9%
Color and state ([4]; 92.5% RH, 30 days): Off-white solid
Crystal form ([4]; 92.5% RH, 30 days): No change
Purity % ([4]; 92.5% RH, 30 days): 99.9%
Color and state ([4]; Initial, 0 days): Off-white solid
Purity % ([4]; Initial, 0 days): 99.9%
Color and state [4, 6]: Off-white solid
Crystal form [4, 6]: No change
Purity % [4, 6]: 99.9%
Color and state [4, 7]: Off-white solid
Crystal form [4, 7]: No change
Purity % [4, 7]: 99.9%
Color and state [4, 8]: Off-white solid
Crystal form [4, 8]: No change
Purity % [4, 8]: 99.9%
SMILES: Cc1ccc(F)c([C@H](C)Nc2nc(=O)n(C3CCOCC3)c(=O)[nH]2)c1 [crystal form B, (S)-6-((1-(2-fluoro-5-methylphenyl)ethyl)amino)-3-(tetrahydro-2H-pyran-4-yl)-1,3,5-triazine-2,4(1H,3H)-dione]
physical and chemical stability (conclusion) ([2]; 6 months): both good physical stability and good chemical stability
physical and chemical stability (conclusion) ([4]; 30 days): both good physical stability and good chemical stability

SMILES: CC(C)n1c(=O)cc(N[C@@H](C)c2ccccc2)[nH]c1=O [MYK-461, reference compound]
accumulation in the SD rats [1]: caused significant accumulation

— patent publication US20250326743A1, “CRYSTAL FORMS OF TRIAZINE DIONE DERIVATIVE AND PREPARATION METHOD THEREFOR” (Jiangsu Hengrui Pharmaceuticals Co., Ltd., priority 2022, published 2025)
